Test results: ChEMBL document CHEMBL5154777, “Alternative approaches utilizing click chemistry to develop next-generation analogs of solithromycin” (2022)
In brackets after ≈: the same amount, converted by molar mass.

Tests used:
Format in all cases: functional
Staphylococcus aureus [1] = assay: Antibacterial activity against Staphylococcus aureus UCN17
Staphylococcus aureus [2] = assay: Antibacterial activity against Staphylococcus aureus UCN14
Streptococcus pneumoniae [3] = assay: Antibacterial activity against Streptococcus pneumoniae 655 mef A
Staphylococcus aureus [4] = assay: Antibacterial activity against Staphylococcus aureus UCN18
Streptococcus pneumoniae [5] = assay: Antibacterial activity against Streptococcus pneumoniae 2196 erm B
Staphylococcus aureus [6] = assay: Antibacterial activity against Staphylococcus aureus ATCC 33591
Escherichia coli [7] = assay: Antibacterial activity against Escherichia coli DK3535
Escherichia coli [8] = assay: Antibacterial activity against Escherichia coli DK2058G
Streptococcus pneumoniae [9] = assay: Antibacterial activity against Streptococcus pneumoniae 2634 mef A 2059G
Escherichia coli [10] = assay: Antibacterial activity against Escherichia coli MG1655
Enterococcus faecium = assay: Antibacterial activity against Enterococcus faecium NCTC 7171
Pseudomonas aeruginosa = assay: Antibacterial activity against Pseudomonas aeruginosa HER 1018
Klebsiella pneumoniae = assay: Antibacterial activity against Klebsiella pneumoniae BAA 2146
Enterobacter cloacae = assay: Antibacterial activity against Enterobacter cloacae ATCC 13047
Staphylococcus aureus [11] = assay: Antibacterial activity against methicillin-resistant Staphylococcus aureus ATCC 43300
Acinetobacter baumannii = assay: Antibacterial activity against Acinetobacter baumannii 2208 ATCC 19606
Escherichia coli [12] = assay: Antibacterial activity against Escherichia coli SQ171 2058G
Staphylococcus aureus [13] = assay: Antibacterial activity against Staphylococcus aureus ATCC 29213
Escherichia coli [14] = assay: Antibacterial activity against Escherichia coli SQ171
Escherichia coli [15] = assay: Antibacterial activity against Escherichia coli DK

| Structure (SMILES) | MIC (Staphylococcus aureus [1]) [µM] | MIC (Staphylococcus aureus [2]) [µM] | MIC (Streptococcus pneumoniae [3]) [µM] | MIC (Staphylococcus aureus [4]) [µM] | MIC (Streptococcus pneumoniae [5]) [µM] | MIC (Staphylococcus aureus [6]) [µM] | MIC (Escherichia coli [7]) [µM] | MIC (Escherichia coli [8]) [µM] | MIC (Streptococcus pneumoniae [9]) [µM] | MIC (Escherichia coli [10]) [µM] | MIC (Enterococcus faecium) [µM] | MIC (Pseudomonas aeruginosa) [µM] | MIC (Klebsiella pneumoniae) [µM] | MIC (Enterobacter cloacae) [µM] | MIC (Staphylococcus aureus [11]) [µM] | MIC (Acinetobacter baumannii) [µM] | MIC (Escherichia coli [12]) [µM] | MIC (Staphylococcus aureus [13]) [µM] | MIC (Escherichia coli [14]) [µM] | MIC (Escherichia coli [15]) [µM] |
| --- | --- | --- | --- | --- | --- | --- | --- | --- | --- | --- | --- | --- | --- | --- | --- | --- | --- | --- | --- | --- |
| CC[C@H]1OC(=O)[C@@](C)(F)C(=O)[C@H](C)[C@@H](OC[C@@H](O)CN2CCOCC2)[C@](C)(OC)C[C@@H](C)C(=O)[C@H](C)C2N(CCCCn3cc(-c4cccc(N)c4)nn3)C(=O)O[C@@]21C (single isomer, unassigned) | > 150 | > 150 | > 4.8 | > 150 | > 4.8 | > 150 | 4.8 (≈ 3.99 µg/mL) | 4.8 (≈ 3.99 µg/mL) | > 4.8 |  |  |  |  |  |  |  |  |  |  |  |
| CC[C@H]1OC(=O)[C@@](C)(F)C(=O)[C@H](C)[C@@H](OC[C@@H](O)CN(C)C)[C@](C)(OC)C[C@@H](C)C(=O)[C@H](C)C2N(CCCCn3cc(-c4cccc(N)c4)nn3)C(=O)O[C@@]21C (single isomer, unassigned) | > 160 | > 160 | 2.5 (≈ 1.97 µg/mL) | > 160 | > 5.1 | > 160 | > 41 | > 41 | > 5.1 |  |  |  |  |  |  |  |  |  |  |  |
| CC[C@H]1OC(=O)[C@@](C)(F)C(=O)[C@H](C)[C@@H](OC[C@@H](O)CN2CCCCC2)[C@](C)(OC)C[C@@H](C)C(=O)[C@H](C)C2N(CCCCn3cc(-c4cccc(N)c4)nn3)C(=O)O[C@@]21C (single isomer, unassigned) | > 150 | > 150 | > 4.8 | > 150 | > 4.8 | > 150 | 9.6 (≈ 7.96 µg/mL) | 4.8 (≈ 3.98 µg/mL) | > 4.8 |  |  |  |  |  |  |  |  |  |  |  |
| CC(=O)NC[C@H]1CN(c2ccc(N3CCOCC3)c(F)c2)C(=O)O1 [LINEZOLID] |  |  |  |  |  |  |  |  |  | > 200 | 6 (≈ 2.02 µg/mL) | > 200 | > 200 | > 200 | 6 (≈ 2.02 µg/mL) | > 200 |  |  |  |  |
| CC[C@H]1OC(=O)[C@@](C)(F)C(=O)[C@H](C)[C@@H](O[C@@H]2O[C@H](C)C[C@H](N(C)C)[C@H]2O)[C@](C)(OC)C[C@@H](C)C(=O)[C@H](C)[C@H]2N(CCCCn3cc(-c4cccc(N)c4)nn3)C(=O)O[C@]12C [SOLITHROMYCIN] | 4.7 (≈ 3.97 µg/mL) | 9.5 (≈ 8.03 µg/mL) | 0.29 (≈ 0.245 µg/mL) | 4.7 (≈ 3.97 µg/mL) | 0.59 (≈ 0.499 µg/mL) | 38 (≈ 32.1 µg/mL) | 2.4 (≈ 2.03 µg/mL) | 4.7 (≈ 3.97 µg/mL) | 0.15 (≈ 0.127 µg/mL) | 100 (≈ 84.5 µg/mL) | 0.2 (≈ 0.169 µg/mL) | 30 (≈ 25.4 µg/mL) | 100 (≈ 84.5 µg/mL) | 200 (≈ 169 µg/mL) | > 200 | 50 (≈ 42.3 µg/mL) | > 38 | 0.071 (≈ 0.06 µg/mL) | > 38 | 2.4 (≈ 2.03 µg/mL) |
